# Measurements published in US10681909B2, “Herbicidal triazoles” (FMC Corporation, priority 2014, dated 2020).
# Tests used:
# [1] = test system: pigweed; experiment: Test C postemergence; assay type: in vivo, Amaranthus retroflexus
# Text: (§1) Seeds of plant species selected from blackgrass (Alopecurus myosuroides), ryegrass, Italian (Italian ryegrass, Lolium multiflorum), wheat (winter wheat, Triticum aestivum), galium (catchweed bedstraw, Galium aparine), corn (Zea mays), crabgrass, large (large crabgrass, Digitaria sanguinalis), foxtail, giant, (giant foxtail, Setaria faberii), johnsongrass (Sorghum halepense), lambsquarters (Chenopodium album), morningglory (Ipomoea coccinea), nutsedge, yellow (yellow nutsedge, Cyperus esculentus), pigweed (Amaranthus retroflexus), ragweed (common ragweed, Ambrosia elatior), soybean (Glycine max), barnyardgrass (Echinochloa crus-galli), oilseed rape (Brassica napus), waterhemp (common waterhemp, Amaranthus rudis), and velvetleaf (Abutilon theophrasti) were planted into a blend of loam soil and sand and treated preemergence with test chemicals formulated in a non-phytotoxic solvent mixture which included a surfactant. At the same time, plants selected from these crop and weed species and also chickweed (common chickweed, Stellaria media), oat, wild (wild oat, Avena fatua), and kochia (Kochia scoparia), were planted in pots containing Sunshine Redi-Earth® planting medium comprising spaghnum peat moss, vermiculite, starter nutrients and dolomitic limestone and treated with postemergence applications of test chemicals formulated in the same manner. Plants ranged in height from 2 to 18 cm (1- to 4-leaf stage) for postemergence treatments. […] A dash (-) response means no test result.
# [2] = test system: johnsongrass; experiment: Test C postemergence; assay type: in vivo, Sorghum halepense
# Text: as §1
# [3] = test system: oat, wild; experiment: Test C postemergence; assay type: in vivo, Avena fatua
# Text: as §1
# [4] = test system: blackgrass; experiment: Test C postemergence; assay type: in vivo, Alopecurus myosuroides
# Text: as §1
# [5] = test system: wheat (winter wheat); experiment: Test C postemergence; assay type: in vivo, Triticum aestivum
# Text: as §1
# [6] = test system: foxtail, giant; experiment: Test A preemergence; assay type: in vivo, Setaria faberii; conditions: Setaria faberi, pre-emergence, 240 h, 0 to 100 scale (0 no effect, 100 complete control), read-out: Plant response rating, Foxtail, Giant
# How it was run: (§2)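 Pre- and postemergence spray tests in a loam soil–sand mixture: seeded soil received a directed spray, while established seedlings 2–10 cm high at the one- to two-leaf stage were treated over the top. Compounds were carried in non-phytotoxic solvent with surfactant.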
# [7] = test system: ryegrass, Ital.; experiment: Test D preemergence; assay type: in vivo, Lolium multiflorum; conditions: for Plant response rating: Ryegrass, Ital.: scale 0 to 100
# Text: Seeds of plant species selected from bluegrass (annual bluegrass, Poa annua), blackgrass (Alopecurus myosuroides), canarygrass (Phalaris minor), chickweed (common chickweed, Stellaria media), galium (catchweed bedstraw, Galium aparine), bromegrass, down (downy bromegrass, Bromus tectorum), Russian thistle (Salsola kali), field poppy (Papaver rhoeas), field violet (Viola arvensis), foxtail, green (green foxtail, Setaria viridis), deadnettle (henbit deadnettle, Lamium amplexicaule), ryegrass, Ital. (Italian ryegrass, Lolium multiflorum), kochia (Kochia scoparia), lambsquarters (Chenopodium album), oilseed rape (Brassica napus), pigweed (Amaranthus retroflexus), chamomile (scentless chamomile, Matricaria inodora), speedwell (bird's-eye speedwell, Veronica persica), barley, spring (spring barley, Hordeum vulgare), wheat, spring (spring wheat, Triticum aestivum), buckwheat, wild (wild buckwheat, Polygonum convolvulus), wild mustard (Sinapis arvensis), oat, wild (wild oat, Avena fatua), radish, wild (wild radish, Raphanus raphanistrum), […]), barley, winter (winter barley, Hordeum vulgare), and wheat, winter (winter wheat, Triticum aestivum) were planted into a silt loam soil and treated preemergence with test chemicals formulated in a non-phytotoxic solvent mixture which included a surfactant. At the same time, these species were planted in pots containing Sunshine Redi-Earth® planting medium comprising spaghnum peat moss, vermiculite, starter nutrients and dolomitic limestone and treated with postemergence applications of the test chemicals formulated in the same manner. Plants ranged in height from 2 to 18 cm (1- to 4-leaf stage). Treated plants and controls were maintained in a controlled growth environment for 14 to 21 d after which time all species were compared to controls and visually evaluated. […] A dash (-) response means no test result.
# [8] = test system: soybean; experiment: Test C postemergence; assay type: in vivo, Glycine max
# Text: as §1
# [9] = test system: galium; experiment: Test C postemergence; assay type: in vivo, Galium aparine
# Text: as §1
# [10] = test system: chickweed; experiment: Test C postemergence; assay type: in vivo, Stellaria media
# Text: as §1
# [11] = test system: lambsquarters; experiment: Test C postemergence; assay type: in vivo, Chenopodium album
# Text: as §1
# [12] = test system: pigweed; experiment: Test A preemergence; assay type: in vivo, Amaranthus retroflexus; conditions: Amaranthus retroflexus, pre-emergence, 240 h, 0 to 100 scale (0 no effect, 100 complete control), read-out: Plant response rating, Pigweed
# How it was run: as §2
smiles,measurement,setting,value
"CCOc1nc(-c2ccc(C(F)(F)F)cc2)nn1Cc1ccnc(C(F)(F)F)c1 [Compound 35, 4-[[5-ethoxy-3-[4-(trifluoromethyl)phenyl]-1H-1,2,4-triazole-1-yl]methyl]-2-(trifluoromethyl)pyridine]",Plant response rating (scale of 0 to 100 where 0 is no effect and 100 is complete control),[1]; 31 g ai/ha,98
same,Plant response rating (scale of 0 to 100 where 0 is no effect and 100 is complete control),[1]; 62 g ai/ha,98
same,Plant response rating (scale of 0 to 100 where 0 is no effect and 100 is complete control),[1]; 125 g ai/ha,100
same,Plant response rating (scale of 0 to 100 where 0 is no effect and 100 is complete control),[1]; 250 g ai/ha,100
same,Plant response rating (scale of 0 to 100 where 0 is no effect and 100 is complete control),[2]; 31 g ai/ha,75
same,Plant response rating (scale of 0 to 100 where 0 is no effect and 100 is complete control),[2]; 62 g ai/ha,85
same,Plant response rating (scale of 0 to 100 where 0 is no effect and 100 is complete control),[2]; 125 g ai/ha,95
same,Plant response rating (scale of 0 to 100 where 0 is no effect and 100 is complete control),[2]; 250 g ai/ha,100
same,Plant response rating (scale of 0 to 100 where 0 is no effect and 100 is complete control),[3]; 31 g ai/ha,45
same,Plant response rating (scale of 0 to 100 where 0 is no effect and 100 is complete control),[3]; 62 g ai/ha,50
same,Plant response rating (scale of 0 to 100 where 0 is no effect and 100 is complete control),[3]; 125 g ai/ha,85
same,Plant response rating (scale of 0 to 100 where 0 is no effect and 100 is complete control),[3]; 250 g ai/ha,90
same,Plant response rating (scale of 0 to 100 where 0 is no effect and 100 is complete control),[4]; 31 g ai/ha,65
same,Plant response rating (scale of 0 to 100 where 0 is no effect and 100 is complete control),[4]; 62 g ai/ha,70
same,Plant response rating (scale of 0 to 100 where 0 is no effect and 100 is complete control),[4]; 125 g ai/ha,85
same,Plant response rating (scale of 0 to 100 where 0 is no effect and 100 is complete control),[4]; 250 g ai/ha,85
same,Plant response rating (scale of 0 to 100 where 0 is no effect and 100 is complete control),[5]; 31 g ai/ha,15
same,Plant response rating (scale of 0 to 100 where 0 is no effect and 100 is complete control),[5]; 62 g ai/ha,20
same,Plant response rating (scale of 0 to 100 where 0 is no effect and 100 is complete control),[5]; 125 g ai/ha,35
same,Plant response rating (scale of 0 to 100 where 0 is no effect and 100 is complete control),[5]; 250 g ai/ha,30
same,pest or weed control at 31 g/ha,[6]; 31 g ai/ha,100%
same,pest or weed control at 125 g/ha,[6]; 125 g ai/ha,100%
same,"Plant response rating (0 to 100), Ryegrass, Ital.","[7]; 16 g ai/ha, 0 is no effect, 100 is complete control",35
same,"Plant response rating: Ryegrass, Ital.",[7]; 62 g ai/ha,65
same,"Plant response rating: Ryegrass, Ital.",[7]; 125 g ai/ha,70
same,Plant response rating (scale of 0 to 100 where 0 is no effect and 100 is complete control),[8]; 31 g ai/ha,55
same,Plant response rating (scale of 0 to 100 where 0 is no effect and 100 is complete control),[8]; 62 g ai/ha,65
same,Plant response rating (scale of 0 to 100 where 0 is no effect and 100 is complete control),[8]; 125 g ai/ha,65
same,Plant response rating (scale of 0 to 100 where 0 is no effect and 100 is complete control),[8]; 250 g ai/ha,70
same,Plant response rating (scale of 0 to 100 where 0 is no effect and 100 is complete control),[9]; 31 g ai/ha,80
same,Plant response rating (scale of 0 to 100 where 0 is no effect and 100 is complete control),[9]; 62 g ai/ha,80
same,Plant response rating (scale of 0 to 100 where 0 is no effect and 100 is complete control),[9]; 125 g ai/ha,90
same,Plant response rating (scale of 0 to 100 where 0 is no effect and 100 is complete control),[9]; 250 g ai/ha,90
same,Plant response rating (scale of 0 to 100 where 0 is no effect and 100 is complete control),[10]; 31 g ai/ha,100
same,Plant response rating (scale of 0 to 100 where 0 is no effect and 100 is complete control),[10]; 62 g ai/ha,100
same,Plant response rating (scale of 0 to 100 where 0 is no effect and 100 is complete control),[10]; 125 g ai/ha,100
same,Plant response rating (scale of 0 to 100 where 0 is no effect and 100 is complete control),[10]; 250 g ai/ha,100
same,Plant response rating (scale of 0 to 100 where 0 is no effect and 100 is complete control),[11]; 31 g ai/ha,98
same,Plant response rating (scale of 0 to 100 where 0 is no effect and 100 is complete control),[11]; 62 g ai/ha,95
same,Plant response rating (scale of 0 to 100 where 0 is no effect and 100 is complete control),[11]; 125 g ai/ha,98
same,Plant response rating (scale of 0 to 100 where 0 is no effect and 100 is complete control),[11]; 250 g ai/ha,100
same,pest or weed control at 31 g/ha,[12]; 31 g ai/ha,100%
same,pest or weed control at 125 g/ha,[12]; 125 g ai/ha,100%
